How the values were obtained:
EP2 receptor = target: T1, EP2 receptor (Homo sapiens, UniProt P43116); assay: hEP2 cAMP assay (SF295 glioblastoma cells, HTRF cAMP, PGE2 stimulation); type: cell-based; conditions: antagonistic activity
T1 construct: SF295 glioblastoma cells express high endogenous EP2 and no EP4; host or cells: SF295 glioblastoma cells
In short: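 HTRF cAMP readout gave % cAMP relative to DMSO, fitted to IC50 with duplicate points. Compounds were preincubated 45 min at room temperature with EP2-expressing, EP4-negative SF295 cells in IBMX (2 mM)-containing buffer before a 30 min challenge with PGE2 at 75 nM final, its EC80.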

PTGER2 (EP2) = target: T2, PTGER2 (EP2) (Homo sapiens, UniProt P43116); assay: hEP2 b-arrestin assay (PathHunter HEK 293 PTGER2 b-arrestin cells); type: cell-based; conditions: antagonistic activity, beta-arrestin assay; read-out: hEP2 b-arr IC50
T2 construct: host or cells: HEK 293 (PathHunter PTGER2 b-arrestin cell line)
In short: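 Antagonism measured as inhibition of PGE2-driven β-arrestin 2 recruitment (enzyme fragment complementation, luminescence) in engineered HEK293 EP2 cells. Agonist: 5 μM PGE2, ~EC80, 120 min at 37 °C after 15 min compound preincubation; test range 10 μM-2 nM or 1 μM-0.2 nM, duplicates, IC50 fitted.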

T2 sequence (P43116 whole entry): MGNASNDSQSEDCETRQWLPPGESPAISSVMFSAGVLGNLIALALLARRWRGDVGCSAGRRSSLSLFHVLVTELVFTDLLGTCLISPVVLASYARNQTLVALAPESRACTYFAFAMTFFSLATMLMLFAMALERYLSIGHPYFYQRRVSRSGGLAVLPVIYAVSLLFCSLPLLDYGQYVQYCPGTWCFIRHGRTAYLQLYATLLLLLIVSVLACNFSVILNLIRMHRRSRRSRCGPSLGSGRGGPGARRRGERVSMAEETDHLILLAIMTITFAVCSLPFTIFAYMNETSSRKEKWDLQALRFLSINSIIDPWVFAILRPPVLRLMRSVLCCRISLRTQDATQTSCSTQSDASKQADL
T1 sequence (P43116 whole entry): as above

IC50 (EP2 receptor) [nM] | IC50 (PTGER2 (EP2)) [nM] | SMILES
4 | 1 | CCSc1cc(-c2cc(NCCc3c(C)oc4ccccc34)ncn2)ccc1C(=O)O [Example 44, 2-Ethylsulfanyl-4-{6-[2-(2-methyl-benzofuran-3-yl)-ethylamino]-pyrimidin-4-yl}-benzoic acid]
48 | 20 | CCCc1cc(-c2cc(NCCc3c(C)sc4c(C)cc(F)cc34)ncn2)ccc1C(=O)O [Example 45, 4-{6-[2-(5-Fluoro-2,7-dimethyl-benzo[b]thiophen-3-yl)-ethylamino]-pyrimidin-4-yl}-2-propyl-benzoic acid]
31 | 46 | Cc1sc2c(C)cc(F)cc2c1CCNc1cc(-c2cc(C(F)(F)F)c(C(=O)O)s2)ncn1 [Example 46, 5-{6-[2-(5-Fluoro-2,7-dimethyl-benzo[b]thiophen-3-yl)-ethylamino]-pyrimidin-4-yl}-3-trifluoromethyl-thiophene-2-carboxylic acid]
12 | 10 | CSc1cc(-c2cc(NCCc3c(C)sc4c(C)cccc34)ncn2)cc(F)c1C(=O)O [Example 47, 4-{6-[2-(2,7-Dimethyl-benzo[b]thiophen-3-yl)-ethylamino]-pyrimidin-4-yl}-2-fluoro-6-methylsulfanyl-benzoic acid]
13 | 18 | CSc1cc(-c2cc(NCCc3c(C)sc4c(C)cccc34)ncn2)cc(Cl)c1C(=O)O [Example 50, 2-Chloro-4-{6-[2-(2,7-dimethyl-benzo[b]thiophen-3-yl)-ethylamino]-pyrimidin-4-yl}-6-methylsulfanyl-benzoic acid]
95 | 46 | CCOc1cc(-c2cc(NCCc3c(C)sc4c(C)cc(F)cc34)ncn2)sc1CC(=O)O [Example 52, (3-Ethoxy-5-{6-[2-(5-fluoro-2,7-dimethyl-benzo[b]thiophen-3-yl)-ethylamino]-pyrimidin-4-yl}-thiophen-2-yl)-acetic acid]
7 | 9 | CCOc1cc(-c2cc(NCCc3c(C#N)sc4c(C)cc(F)cc34)ncn2)ccc1C(=O)O [Example 53, 4-{6-[2-(2-Cyano-5-fluoro-7-methyl-benzo[b]thiophen-3-yl)-ethylamino]-pyrimidin-4-yl}-2-ethoxy-benzoic acid]
77 | 194 | CCOc1cc(-c2cc(NCCc3c(C#N)sc4c(OC)cccc34)ncn2)ccc1C(=O)O [Example 54, 4-{6-[2-(2-Cyano-7-methoxy-benzo[b]thiophen-3-yl)-ethylamino]-pyrimidin-4-yl}-2-ethoxy-benzoic acid]
40 | 15 | CCOc1cc(-c2cc(NCCc3c(C)sc4c(OC)ccc(F)c34)ncn2)ccc1C(=O)O [Example 55, 2-Ethoxy-4-{6-[2-(4-fluoro-7-methoxy-2-methyl-benzo[b]thiophen-3-yl)-ethylamino]-pyrimidin-4-yl}-benzoic acid]
19 | 13 | CCOc1cc(-c2cc(NCCc3c(C)sc4c(C)cc(F)cc34)ncn2)ccc1C(=O)O [Example 56, 2-Ethoxy-4-{6-[2-(5-fluoro-2,7-dimethyl-benzo[b]thiophen-3-yl)-ethylamino]-pyrimidin-4-yl}-benzoic acid]
44 | 17 | CCOc1cc(-c2cc(NCCc3c(C)sc4c(OC)ccc(Cl)c34)ncn2)ccc1C(=O)O [Example 57, 4-{6-[2-(4-Chloro-7-methoxy-2-methyl-benzo[b]thiophen-3-yl)-ethylamino]-pyrimidin-4-yl}-2-ethoxy-benzoic acid]
17 | 12 | CCOc1cc(-c2cc(NCCc3c(Br)sc4c(C)cc(F)cc34)ncn2)ccc1C(=O)O [Example 58, 4-{6-[2-(2-Bromo-5-fluoro-7-methyl-benzo[b]thiophen-3-yl)-ethylamino]-pyrimidin-4-yl}-2-ethoxy-benzoic acid]
12 | 15 | CCOc1cc(-c2cc(NCCc3c(Cl)sc4c(C)cc(F)cc34)ncn2)ccc1C(=O)O [Example 59, 4-{6-[2-(2-Chloro-5-fluoro-7-methyl-benzo[b]thiophen-3-yl)-ethylamino]-pyrimidin-4-yl}-2-ethoxy-benzoic acid]
15 | 7 | CCOc1cc(-c2cc(NCCc3c(C)sc4c(C)cccc34)ncn2)ccc1C(=O)O [Example 60, 4-{6-[2-(2,7-Dimethyl-benzo[b]thiophen-3-yl)-ethylamino]-pyrimidin-4-yl}-2-ethoxy-benzoic acid]
60 | 22 | CCOc1cc(-c2cc(NCCc3c(C)sc4c(C)ccc(F)c34)ncn2)ccc1C(=O)O [Example 61, 2-Ethoxy-4-{6-[2-(4-fluoro-2,7-dimethyl-benzo[b]thiophen-3-yl)-ethylamino]-pyrimidin-4-yl}-benzoic acid]
14 | 12 | CCOc1cc(-c2cc(NCCc3c(C)sc4c(C)c(F)ccc34)ncn2)ccc1C(=O)O [Example 62, 2-Ethoxy-4-{6-[2-(6-fluoro-2,7-dimethyl-benzo[b]thiophen-3-yl)-ethylamino]-pyrimidin-4-yl}-benzoic acid]
64 | 27 | CCOc1cc(-c2cc(NCCc3c(C)sc4c(Cl)ccc(Cl)c34)ncn2)ccc1C(=O)O [Example 63, 4-{6-[2-(4,7-Dichloro-2-methyl-benzo[b]thiophen-3-yl)-ethylamino]-pyrimidin-4-yl}-2-ethoxy-benzoic acid]
7 | 11 | CCOc1cc(-c2cc(NCCc3c(C)oc4c(C)cc(Cl)cc34)ncn2)ccc1C(=O)O [Example 64, 4-{6-[2-(5-Chloro-2,7-dimethyl-benzofuran-3-yl)-ethylamino]-pyrimidin-4-yl}-2-ethoxy-benzoic acid]
15 | 16 | CCOc1cc(-c2cc(NCCc3c(C)sc4c(Cl)cc(F)cc34)ncn2)ccc1C(=O)O [Example 65, 4-{6-[2-(7-Chloro-5-fluoro-2-methyl-benzo[b]thiophen-3-yl)-ethylamino]-pyrimidin-4-yl}-2-ethoxy-benzoic acid]
101 | 27 | CCOc1cc(-c2cc(NCCc3c(C)sc4c(C)ccc(Cl)c34)ncn2)ccc1C(=O)O [Example 66, 4-{6-[2-(4-Chloro-2,7-dimethyl-benzo[b]thiophen-3-yl)-ethylamino]-pyrimidin-4-yl}-2-ethoxy-benzoic acid]
142 | 73 | CCOc1cc(-c2cc(NCCc3c(C)oc4c(OC)ccc(F)c34)ncn2)ccc1C(=O)O [Example 67, 2-Ethoxy-4-{6-[2-(4-fluoro-7-methoxy-2-methyl-benzofuran-3-yl)-ethylamino]-pyrimidin-4-yl}-benzoic acid]
39 | 14 | CCOc1cc(-c2cc(NCCc3c(C)oc4c(Cl)cccc34)ncn2)ccc1C(=O)O [Example 68, 4-{6-[2-(7-Chloro-2-methyl-benzofuran-3-yl)-ethylamino]-pyrimidin-4-yl}-2-ethoxy-benzoic acid]
74 | 24 | CCOc1cc(-c2cc(NCCc3c(C)oc4c(C)cc(F)cc34)ncn2)ccc1C(=O)O [Example 69, 2-Ethoxy-4-{6-[2-(5-fluoro-2,7-dimethyl-benzofuran-3-yl)-ethylamino]-pyrimidin-4-yl}-benzoic acid]

— patent US11325899B2, “Benzofurane and benzothiophene derivatives as PGE2 receptor modulators” (IDORSIA PHARMACEUTICALS LTD, priority 2017, dated 2022)
